Converted amounts (≈) assume the structure as drawn.
Tests used:
[1] = tested on: SPN 6305 (Streptococcus pneumoniae (ATCC6305)); assay: Microtitre plate assay, IC90 determination; assay type: cell-based; settings: for IC90 (μg/ml) SPN 6305: Streptococcus pneumoniae (ATCC6305)
Description: (§1) The bacteria used in this study were grown overnight in flasks containing 100 ml Mueller-Hinton Broth (Becton Dickinson—cat. no. 275730) in sterile de-ionized water, with shaking, at 37° C. Stocks (0.5 ml/tube) were stored at −70° C. until use. Bacteria titrations were performed in microtiter plates and colony forming units (CFUs) were determined. In general, an inoculum level of approximately 100 CFUs was used for susceptibility testing.
(§2) Flat-bottom, sterile 96-well plastic microtiter plates were filled with 180 μl of sterile deionized water, supplemented with 0.25% BSA. Subsequently, stock solutions (7.8× final test concentration) of compounds were added in 45 μl volumes in column 2. Serial five-fold dilutions (45 μl in 180 μl) were made directly in the microtiter plates from column 2 to reach column 11. Untreated control samples with (column 1) and without (column 12) inoculum were included in each microtiter plate. Depending on the bacteria type, approximately 10 to 60 CFU per well of bacteria inoculum (100 TCID50), in a volume of 100 μl in 2.8× Mueller-Hinton broth medium, was added to the rows A to H, except column 12. The same volume of broth medium without inoculum was added to column 12 in row A to H. The cultures were incubated at 37° C. for 24 hours under a normal atmosphere (incubator with open air valve and continuous ventilation). At the end of incubation, one day after inoculation, the bacterial growth was quantitated fluorometrically. Therefore resazurin (0.6 mg/ml) was added in a volume of 20 μl to all wells 3 hours after inoculation, and the plates were re-incubated overnight. A change in colour from blue to pink indicated the growth of bacteria. The fluorescence was read in a computer-controlled fluorometer (Cytofluor Biosearch) at an excitation wavelength of 530 nm and an emission wavelength of 590 nm. The % growth inhibition achieved by the compounds was calculated according to standard methods. The IC90 (expressed in μg/ml) was defined as the 90% inhibitory concentration for bacterial growth.

[2] = tested on: STA 29213 (Staphylococcus aureus (ATCC29213)); assay: Microtitre plate assay, IC90 determination; assay type: cell-based; settings: for IC90 (μg/ml) STA 29213: Staphylococcus aureus (ATCC29213)
Description: as §1, §2

SMILES	IC90 (μg/ml) SPN 6305 [1] [µg/mL]	IC90 (μg/ml) STA 29213 [2] [µg/mL]	IC90 ([2]; Staphylococcus aureus, ATCC29213, Staphylococcus aureus (ATCC29213), read-out: IC90 (μg/ml) STA 29213) [µg/mL]	IC90 ([1]; Streptococcus pneumoniae, ATCC6305, Streptococcus pneumoniae (ATCC6305), read-out: IC90 (μg/ml) SPN 6305) [µg/mL]
COc1nc2ccc(Cl)cc2cc1C(c1ccccc1)C(O)(CCCCN(C)C)c1ccc2ccccc2c1 (racemic) [Compound 79]	2.7 (≈ 5.01 µM)	2.15 (≈ 3.99 µM)		
CCCCN(C)CCCCC(O)(c1ccccc1)C(c1ccccc1)c1cc2cc(Br)ccc2nc1OC (racemic) [Compound 92]	2.29 (≈ 3.98 µM)	11.48 (≈ 19.9 µM)		
COc1nc2ccc(Br)cc2cc1C(c1ccccc1)C(O)(CCCCN1CCCC1)c1ccccc1 (racemic) [Compound 93]	9.95 (≈ 17.8 µM)	11.16 (≈ 19.9 µM)		
COc1nc2ccc(Br)cc2cc1C(c1ccccc1)C(O)(CCCCN1CCCCC1)c1ccccc1 (racemic) [Compound 94]	1.81 (≈ 3.16 µM)	4.06 (≈ 7.08 µM)		
COc1nc2ccc(Br)cc2cc1C(c1ccccc1)C(O)(CCCCN1CCCCC1)c1ccccc1 (racemic) [Compound 95]	2.28 (≈ 3.98 µM)	10.2 (≈ 17.8 µM)		
COc1ccc(C(O)(CCCCN2CCCCC2)C(c2ccccc2)c2cc3cc(Br)ccc3nc2OC)cc1 (racemic) [Compound 97]	1.91 (≈ 3.16 µM)	1.91 (≈ 3.16 µM)		
COc1nc2ccc(Br)cc2cc1C(c1ccccc1)C(O)(CCCCN1CCC(C)CC1)c1ccc2ccccc2c1 (racemic) [Compound 103]	0.4 (≈ 0.627 µM)	1.8 (≈ 2.82 µM)		
COc1nc2ccc(Br)cc2cc1C(c1ccccc1)C(O)(CCCCN(C)C)CC(C)C (racemic) [Compound 117]	2.29 (≈ 4.46 µM)	9.13 (≈ 17.8 µM)		
COc1nc2ccc(Br)cc2cc1C(c1ccccc1)C(O)(CCCCN(C)C)CC(C)C (racemic) [Compound 118]	5.14 (≈ 10 µM)	8.14 (≈ 15.9 µM)		
COc1nc2ccc(Br)cc2cc1C(c1ccccc1)C(O)(CCCCN(C)C)CCC(C)C (racemic) [Compound 119]	4.19 (≈ 7.94 µM)	18.72 (≈ 35.5 µM)		
COc1nc2ccc(Br)cc2cc1C(c1ccccc1)C(O)(CCCCN(C)C)CCC(C)C (racemic) [Compound 120]	10.53 (≈ 20 µM)	8.36 (≈ 15.8 µM)		
COc1nc2ccc(Br)cc2cc1C(c1ccccc1)C(O)(CCCCN1CCCCC1)CC(C)C (racemic) [Compound 121]	1.96 (≈ 3.54 µM)	8.77 (≈ 15.8 µM)		
CSc1nc2ccc(Br)cc2cc1C(c1ccccc1)C(O)(CCCCN(C)C)c1ccc2ccccc2c1 (single isomer, unassigned) [Compound 3]	60.0 (≈ 100 µM)	60.0 (≈ 100 µM)		
COc1nc2cc(C)ccc2cc1C(c1ccccc1)C(O)(CCCCN(C)C)c1ccc2ccccc2c1 (single isomer, unassigned) [Compound 77]	1.84 (≈ 3.55 µM)	1.84 (≈ 3.55 µM)		
COc1nc2cc(C)ccc2cc1C(c1ccccc1)C(O)(CCCCN(C)C)c1ccc2ccccc2c1 (single isomer, unassigned) [Compound 78]		1.84 (≈ 3.55 µM)		
COc1nc2ccc(Br)cc2cc1C(c1ccccc1)C(O)(CCCCN(C)C(C)C)c1ccccc1 (single isomer, unassigned) [Compound 88]	6.3 (≈ 11.2 µM)	11.2 (≈ 19.9 µM)		
COc1nc2ccc(Br)cc2cc1C(c1ccccc1)C(O)(CCCCN(C)C(C)C)c1ccccc1 (single isomer, unassigned) [Compound 90]	2.51 (≈ 4.47 µM)	2.24 (≈ 3.99 µM)		
COc1nc2ccc(Br)cc2cc1C(c1ccccc1)C(O)(CCCCN1CCCCC1)c1ccccc1 (single isomer, unassigned) [Compound 98]	2.04 (≈ 3.56 µM)	1.81 (≈ 3.16 µM)		

SMILES	IC90 (μg/ml) SPN 6305 [1] [µg/mL]	IC90 (μg/ml) STA 29213 [2] [µg/mL]	IC90 ([2]; Staphylococcus aureus, ATCC29213, Staphylococcus aureus (ATCC29213), read-out: IC90 (μg/ml) STA 29213) [µg/mL]	IC90 ([1]; Streptococcus pneumoniae, ATCC6305, Streptococcus pneumoniae (ATCC6305), read-out: IC90 (μg/ml) SPN 6305) [µg/mL]
COc1nc2ccc(Br)cc2cc1C(c1ccccc1)C(O)(CCCCN1CCCCC1)c1ccccc1 (single isomer, unassigned) [Compound 99]	2.04 (≈ 3.56 µM)	1.81 (≈ 3.16 µM)		
COc1nc2ccc(Br)cc2cc1C(c1ccccc1)C(O)(CCCCN1CCCCC1)c1ccccc1 (single isomer, unassigned) [Compound 100]	11.44 (≈ 19.9 µM)	9.09 (≈ 15.8 µM)		
COc1nc2ccc(Br)cc2cc1C(c1ccccc1)C(O)(CCCCN1CCCCC1)c1ccccc1 (single isomer, unassigned) [Compound 101]	9.09 (≈ 15.8 µM)	9.09 (≈ 15.8 µM)		
COc1nc2ccc(Br)cc2cc1C(c1ccccc1)C(O)(CCCCN1CCN(C)CC1)c1ccccc1 (single isomer, unassigned) [Compound 108]	2.34 (≈ 3.98 µM)	8.31 (≈ 14.1 µM)		
COc1nc2ccc(Br)cc2cc1C(c1ccccc1)C(O)(CCCCN1CCN(C)CC1)c1ccccc1 (single isomer, unassigned) [Compound 109]	5.25 (≈ 8.92 µM)	9.33 (≈ 15.9 µM)		
COc1nc2ccc(Br)cc2cc1C(c1ccccc1)C(O)(CCCCN1CCN(C)CC1)c1ccccc1 (single isomer, unassigned) [Compound 110]	4.68 (≈ 7.95 µM)	9.33 (≈ 15.9 µM)		
COc1nc2ccc(Br)cc2cc1C(c1ccccc1)C(O)(CCCCN1CCN(C)CC1)c1ccccc1 (single isomer, unassigned) [Compound 111]	2.09 (≈ 3.55 µM)	9.33 (≈ 15.9 µM)		
COc1nc2ccc(Br)cc2cc1C(c1ccccc1)C(O)(CCCCN1CCN(C)CC1)c1ccc2ccccc2c1 (single isomer, unassigned) [Compound 113]	2.54 (≈ 3.98 µM)	14.3 (≈ 22.4 µM)		
COc1nc2ccc(Br)cc2cc1C(c1ccccc1)C(O)(CCCCN1CCOCC1)c1ccccc1 (single isomer, unassigned) [Compound 114]	7.25 (≈ 12.6 µM)			
COc1nc2ccc(Br)cc2cc1C(c1ccccc1)C(O)(CCCCN1CCOCC1)c1ccccc1 (single isomer, unassigned) [Compound 115]	2.29 (≈ 3.98 µM)			
COc1nc2ccc(Br)cc2cc1C(c1ccccc1)C(O)(CCCCN1CCOCC1)c1ccccc1 (single isomer, unassigned) [Compound 116]	2.04 (≈ 3.54 µM)	5.76 (≈ 10 µM)		
COc1nc2ccc(Br)cc2cc1C(c1ccccc1)C(O)(CCCCN1CCCCC1)CCC(C)C (single isomer, unassigned) [Compound 123]	1.79 (≈ 3.15 µM)	2.26 (≈ 3.98 µM)		
COc1nc2ccc(Br)cc2cc1C(c1ccccc1)C(O)(CCCCN1CCN(C)CC1)CCC1CCCCC1 (single isomer, unassigned) [Compound 125]	4.95 (≈ 7.95 µM)	9.87 (≈ 15.9 µM)		
COc1nc2ccc(Br)cc2cc1C(c1ccccc1)C(O)(CCCCN(C)C)Cc1ccccc1 (single isomer, unassigned) [Compound 127]	1.73 (≈ 3.16 µM)	1.73 (≈ 3.16 µM)		
COc1nc2ccc(Br)cc2cc1C(c1ccccc1)C(O)(CCCCN(C)C)Cc1ccccc1 (single isomer, unassigned) [Compound 128]		1.73 (≈ 3.16 µM)		
COc1nc2ccc(-c3cccnc3)cc2cc1C(c1ccccc1)C(O)(CCCCN(C)C)c1ccccc1 (centres unmarked) [Compound 43]			21.2 (≈ 39.9 µM)	
COc1nc2ccc(Br)cc2cc1C(c1ccccc1)C(O)(CCCCN(C)Cc1ccccc1)c1ccccc1 (centres unmarked) [Compound 60]	5.4 (≈ 8.86 µM)			
COc1nc2ccc(Br)cc2cc1C(c1ccccc1)C(O)(CCCCN(C)Cc1ccccc1)c1ccccc1 (centres unmarked) [Compound 61]				5.43 (≈ 8.91 µM)

Reference: patent US8841321B2, “Quinoline derivatives as antibacterial agents” (Janssen Pharmaceutica NV, priority 2005, dated 2014)
